Laboratory results as given in ChEMBL document CHEMBL5604063, “ASAP - DENV-2 NS2B-NS3 protease fluorescence dose response” (2024).
“And” between values parts separate entries of the source, which are not always exact repeats. Equal values may be shown once.

What was measured:
[1] = molecular target: T1, Genome polyprotein (dengue virus type 2, UniProt P29990); type: functional, Thailand/16681/1984
[2] = molecular target: T1, Genome polyprotein; type: functional, Thailand/16681/1984; remark: listed apart in the source

T1 sequence (P29990 1346-1475 limits assumed): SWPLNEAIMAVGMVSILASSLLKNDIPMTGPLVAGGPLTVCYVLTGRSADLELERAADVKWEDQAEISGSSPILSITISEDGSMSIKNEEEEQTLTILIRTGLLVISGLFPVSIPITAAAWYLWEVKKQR
T1 sequence (P29990 1476-2093 limits assumed): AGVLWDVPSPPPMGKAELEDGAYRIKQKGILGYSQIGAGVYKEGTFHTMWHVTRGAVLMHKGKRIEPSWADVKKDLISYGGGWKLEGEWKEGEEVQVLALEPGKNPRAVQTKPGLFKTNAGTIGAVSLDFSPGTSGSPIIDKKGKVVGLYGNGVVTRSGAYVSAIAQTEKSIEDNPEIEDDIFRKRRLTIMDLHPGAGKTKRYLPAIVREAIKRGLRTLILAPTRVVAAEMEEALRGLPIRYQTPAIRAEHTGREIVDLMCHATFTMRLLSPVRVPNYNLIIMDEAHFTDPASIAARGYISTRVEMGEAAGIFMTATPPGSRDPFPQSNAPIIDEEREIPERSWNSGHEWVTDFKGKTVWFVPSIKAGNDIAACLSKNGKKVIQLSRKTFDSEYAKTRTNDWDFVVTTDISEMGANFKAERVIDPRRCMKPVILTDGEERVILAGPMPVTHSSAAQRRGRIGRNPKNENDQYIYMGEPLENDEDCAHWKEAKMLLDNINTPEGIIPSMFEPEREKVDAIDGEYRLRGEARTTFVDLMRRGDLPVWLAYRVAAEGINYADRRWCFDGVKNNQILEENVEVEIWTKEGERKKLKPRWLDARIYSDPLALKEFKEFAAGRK

Compound | IC50 [1] | IC50 [2]
Cc1ncc2c(n1)CCC[C@H]2NC(=O)c1cccc2c1CC(=O)N2 | > 100 µM | > 99.5 µM
NCCc1csc2cc(C(=O)Nc3cc([C@H]4CCOC4)ccn3)ccc12 | > 100 µM | > 99.5 µM
O=C1Cc2c(cccc2C(=O)N[C@H]2C[C@H](OC(F)F)C2)N1 | > 100 µM | > 99.5 µM
O=C1Cc2c(cccc2C(=O)Nc2cc3c(cn2)OCCO3)N1 | > 100 µM | > 99.5 µM
Cc1c(C(=O)Nc2ccc3c(c2)CCCC(=O)N3C)cc(C2CC2)n1C | > 100 µM | > 99.5 µM
O=C(Nc1cc2c(c(-c3c[nH]c(=O)c(F)c3)c1)CNC2)c1cc(F)cc2[nH]ncc12 | 38.6 µM and 68.6 µM | 68.4 µM
COc1cc(OC)cc([C@H]2CCN(C(=O)Nc3ccc4c(c3)CNC4)C2)c1 | > 100 µM | > 99.5 µM
COCn1ncc2c(C(=O)Nc3ccc4c(c3)CNC4)cc(Cl)cc21 | > 100 µM | > 99.5 µM
COc1cccc(-c2nc3c(C(=O)Nc4ccc5c(c4)CNC5)cc(F)cc3[nH]2)c1 | > 100 µM | 8.12 µM and 5.22 µM
CO[C@H]1C[C@H](n2ncc3c(C(=O)Nc4ccc5c(c4)CNC5)cc(Cl)cc32)C1 | > 100 µM | > 99.5 µM
O=C1Cc2c(cccc2C(=O)N[C@H]2CCC[C@@H](C(=O)NC3CC3)C2)N1 | > 100 µM | > 99.5 µM
O=C(Nc1ccc2c(c1)CNC2)c1cc(F)cc2[nH]c(CC[C@H]3CCCOC3)nc12 | > 100 µM | 76.2 µM
O=C(Nc1cc(-c2cccnc2)ccn1)c1cc(C2CC2)on1 | > 100 µM | > 99.5 µM
CCO[C@@H]1CC[C@H]1NC(=O)c1cccc2c1CC(=O)N2 | > 100 µM | > 99.5 µM
O=C1Cc2c(cccc2C(=O)NC[C@H]2C[C@@H](n3cccn3)C2)N1 | > 100 µM | > 99.5 µM
O=C1Cc2c(cccc2C(=O)N[C@H]2CCc3ncsc3C2)N1 | > 100 µM | > 99.5 µM
Cc1nc(C2CC2)[nH]c1C(=O)Nc1cc(-c2cccnc2)ccn1 | > 100 µM | > 99.5 µM
CN1C(=O)CC[C@H]1c1nc2c(C(=O)Nc3ccc4c(c3)CNC4)cc(F)cc2[nH]1 | > 100 µM | > 99.5 µM
O=C(Nc1cc(-c2cccnc2)ccn1)c1cn2c(n1)CCC2 | > 100 µM | > 99.5 µM
COC(=O)c1cc(C(=O)Nc2ccc3c(c2)CNC3)cc2[nH]ccc12 | > 100 µM | > 99.5 µM
O=C1Cc2c(cccc2C(=O)N[C@H]2CC[C@H](OC3CCCC3)CC2)N1 | > 100 µM | > 99.5 µM
NCc1cccc(-c2csc3cc(C(=O)Nc4ccc5c(c4)CNC5)ccc23)c1 | > 100 µM | 22.4 µM and 14.7 µM
O=C(Nc1ccc2c(c1)CNC2)c1cc(F)cc2[nH]c(-c3cccc(F)c3)nc12 | 44.1 µM and 36 µM | 4.86 µM and 4.62 µM
Cc1nc(C2(NC(=O)c3cccc4c3CC(=O)N4)CCC2)no1 | > 100 µM | > 99.5 µM

Compound | IC50 [1] | IC50 [2]
C[C@H]1C[C@H]1c1cc(C(=O)Nc2cc(-c3cccnc3)ccn2)no1 | > 100 µM | > 99.5 µM
O=C1Cc2c(cccc2C(=O)NC2(c3ncccc3F)CC2)N1 | > 100 µM | > 99.5 µM
CCOc1cccc(-c2cccc(NC(=O)c3cc(C4CC4)n(C)c3C)n2)c1 | > 100 µM | > 99.5 µM
Cc1[nH]c(-c2ccccc2)cc1C(=O)Nc1cc(-c2cccnc2)ccn1 | > 100 µM | > 99.5 µM
CC(C)NC(=O)[C@H](Nc1ccc2c(c1)CN(C)C2)c1cc(Cl)cc2[nH]ncc12 | 57.6 µM and > 100 µM | > 99.5 µM
Cc1c(C(=O)Nc2cccc(-c3ccc(O)nc3)c2)cc(C2CC2)n1C | > 100 µM | > 99.5 µM
Fc1cc(CNc2ccc3c(c2)CNC3)c2cc[nH]c2c1 | > 100 µM | > 99.5 µM
CC1(NC(=O)c2cccc3c2CC(=O)N3)CCOCC1 | > 100 µM | > 99.5 µM
O=C(Nc1ccc2c(c1)CNC2)c1ccc2c(C3=CCNCC3)csc2c1 | > 100 µM | 52.6 µM and 43.4 µM
O=C1Cc2c(cccc2C(=O)Nc2ccc(-c3cccnc3)cn2)N1 | > 100 µM | > 99.5 µM
COc1ccccc1Cn1cnc2cc(C(=O)Nc3ccc4c(c3)CNC4)ccc21 | > 100 µM | > 99.5 µM
CC(C)(O)c1cncc(NC(=O)c2cccc3c2CC(=O)N3)c1 | > 100 µM | > 99.5 µM
COC(=O)N1CCc2cc(NC(=O)c3cc(C4CC4)n(C)c3C)ccc21 | > 100 µM | > 99.5 µM
O=C(Nc1ccc2c(c1)CNC2)c1cccc2c1[C@]1(CCN(C(=O)OCc3ccccc3)C1)C(=O)N2 | > 100 µM | > 99.5 µM
O=C1Cc2c(cccc2C(=O)N[C@H]2C[C@H](c3ccon3)C2)N1 | > 100 µM | > 99.5 µM
CC(C)n1ncc2c(C(=O)Nc3ccc4c(c3)CNC4)cc(Cl)cc21 | > 100 µM | > 99.5 µM
O=C1Cc2c(cccc2C(=O)NC2(c3ccc(O)nc3)CC2)N1 | > 100 µM | > 99.5 µM
Cc1cc(=O)[nH]c(-c2cccc(NC(=O)c3cc(C4CC4)n(C)c3C)c2)n1 | > 100 µM | > 99.5 µM
Cc1ccc(NC(=O)c2cc(C3CC3)n(C)c2C)cc1-c1cccnc1 | > 100 µM | > 99.5 µM
NC(=O)N1CCc2ccc(NC(=O)c3cccc4c3CC(=O)N4)cc21 | > 100 µM | > 99.5 µM
Cc1[nH]nc2c1CC[C@H](NC(=O)c1cccc3c1CC(=O)N3)C2 | > 100 µM | > 99.5 µM
N#Cc1csc2cc(C(=O)Nc3ccc4c(c3)CNC4)ccc12 | > 100 µM | > 99.5 µM
O=C(Nc1ccc2c(c1)CNC2)c1cc(F)cc(C2=CCOCC2)c1 | > 100 µM | > 49.7 µM
Cc1c(NC(=O)c2cccc3c2CC(=O)N3)cnn1C1CCOCC1 | > 100 µM | > 99.5 µM

Compound | IC50 [1] | IC50 [2]
C=CCNC(=O)C1(NC(=O)c2cccc3c2CC(=O)N3)CCCCC1 | > 100 µM | > 99.5 µM
COc1ccc([C@@H]2C[C@H]2NC(=O)c2cccc3c2CC(=O)N3)cc1 | > 100 µM | > 99.5 µM
COc1cc(-c2cc(NC(=O)c3cc(F)cc4[nH]ncc34)cc3c2CNC3)ccn1 | 29 µM and 73.2 µM | 42.4 µM and 32.7 µM
COCCN1C(=O)CCc2cc(NC(=O)c3cc(C4CC4)n(C)c3C)ccc21 | > 100 µM | > 99.5 µM
Cc1c(C(=O)Nc2cccc(Cn3ccccc3=O)c2)cc(C2CC2)n1C | > 100 µM | > 99.5 µM
O=C1Cc2c(cccc2C(=O)N[C@H]2CC[C@@H](n3ccnn3)CC2)N1 | > 100 µM | > 99.5 µM
CC(C)n1cc2c(C(=O)Nc3ccc4c(c3)CNC4)cc(Cl)cc2n1 | > 100 µM | > 99.5 µM
COC(=O)c1cc2c(cc1NC(=O)c1cc(F)cc3[nH]ncc13)CNC2 | > 100 µM | > 99.5 µM
Cc1c(C(=O)Nc2cccc(C(=O)NC3CC3)c2)cc(C2CC2)n1C | > 100 µM | > 99.5 µM
O=C1Cc2c(cccc2C(=O)NC2CC3(CCOCC3)C2)N1 | > 100 µM | > 99.5 µM
Cc1c(C(=O)Nc2cc(C#N)cn(C)c2=O)cc(C2CC2)n1C | > 100 µM | > 99.5 µM
O=C1Cc2c(cccc2C(=O)N[C@H]2CCc3cnccc32)N1 | > 100 µM | > 99.5 µM
C[C@H](NC(=O)c1cccc2c1CC(=O)N2)c1cc2cnccc2o1 | > 100 µM | > 99.5 µM
C[C@H](NC(=O)c1cccc2c1CC(=O)N2)c1ccncc1F | > 100 µM | > 99.5 µM
CCCn1ncc2c(C(=O)Nc3ccc4c(c3)CNC4)cc(Cl)cc21 | > 100 µM | > 99.5 µM
Cn1nc(CNc2ccc3c(c2)CNC3)cc1C1CC1 | > 100 µM | > 99.5 µM
O=C(Nc1ccc2c(c1)CNC2)c1cc(Cl)cc2c1cnn2C1CCC1 | > 100 µM | > 99.5 µM
O=C(Nc1cc(-c2cccnc2)ccn1)c1sc2c(c1Br)CNC2 | > 100 µM | > 99.5 µM
O=C1Cc2c(cccc2C(=O)NC[C@H]2CCCN(c3nccs3)C2)N1 | > 100 µM | > 99.5 µM
Cn1ncc(C(=O)Nc2cc(-c3cccnc3)ccn2)c1C1CC1 | > 100 µM | > 99.5 µM
O=C(Nc1cc2c(c(C3=CCOCC3)c1)CNC2)c1cc(F)cc2[nH]ncc12 | 27.2 µM and 45.2 µM | 29.7 µM and 19.8 µM
O=C1Cc2c(cccc2C(=O)NCC2(F)CC3(CCOCC3)C2)N1 | > 100 µM | > 99.5 µM
